Read-outs that look alike come from different tables or passages of the source.
How the values were obtained:
[1] = system: Influenza strain A549 A/WSN/33 (H1N1); assay: Influenza Antiviral Assay; format: cell-based, Influenza A virus; settings: neuraminidase fluorescence readout, read-out: % Inhibition
EN PA = EN PA (Influenza A virus, UniProt P15659); assay: EN PA FRET Inhibition Assay; format: biochemical; settings: read-out: Potency

Compound | EC50 ([1]; Influenza A virus, A549, 20 h) [nM] | IC50 (EN PA) [nM] | EC50 [1] [nM]
CNC(=O)c1nn(CC2(c3ccc(C)cc3)CC2)cc(O)c1=O [Compound 656] | > 100000 | 100 to 1000 | –
CNC(=O)c1nn(CC(c2ccccc2)C2CCCC2)cc(O)c1=O (stereo not shown) [Compound 658] | > 100000 | 100 to 1000 | –
CNC(=O)c1nn(CC(c2ccccc2)C2CCCCC2)cc(O)c1=O (stereo not shown) [Compound 659] | > 100000 | 100 to 1000 | –
CNC(=O)c1nn(CC(c2ccccc2)c2ccccc2)cc(O)c1=O [Compound 660] | > 100000 | 100 to 1000 | –
Cc1cn(C2(Cn3cc(O)c(=O)c(C(=O)NC4CC4)n3)CCCC2)c2ncccc12 [Compound 661] | < 20000 | < 100 | –
CNC(=O)c1nn(CC2(n3cc(C)c4cccnc43)CCCC2)cc(OC(C)=O)c1=O [Compound 662] | < 20000 | < 100 | –
Cc1csc(CNC(=O)c2nn(CC3(c4cccc(C(F)(F)F)c4)CCCC3)cc(O)c2=O)c1 [Compound 663] | > 100000 | 100 to 1000 | –
O=C(NCc1cccnc1)c1nn(CC2(c3ccccc3)CCCC2)cc(O)c1=O [Compound 664] | > 100000 | 100 to 1000 | –
CNC(=O)c1nn(CC2(c3cccc(C(C)C)c3)CCCC2)cc(O)c1=O [Compound 665] | < 20000 | < 100 | –
CNC(=O)c1nn(CC2(c3cccc(Br)c3)CCCC2)cc(O)c1=O [Compound 666] | < 20000 | < 100 | –
O=C(NCc1ccc2[nH]ncc2c1)c1nn(CC2(c3cccc(C(F)(F)F)c3)CCCC2)cc(O)c1=O [Compound 669] | > 100000 | < 100 | –
CNC(=O)c1nn(CC2c3ccccc3CCc3ccccc32)cc(O)c1=O [Compound 670] | > 100000 | 100 to 1000 | –
CNC(=O)c1nn(CC2(n3cc(-c4ccccc4)c4cccnc43)CCCC2)cc(O)c1=O [Compound 671] | < 20000 | 100 to 1000 | –
CNC(=O)c1nn(CC2(c3cccc(-c4ccccc4)c3)CCCC2)cc(O)c1=O [Compound 674] | < 20000 | < 100 | –
O=C(NC1CC1)c1nn(CC2(c3ccccc3)CCCC2)cc(O)c1=O [Compound 676] | < 20000 | < 100 | –
O=C(NCC1CC1)c1nn(CC2(c3ccccc3)CCCC2)cc(O)c1=O [Compound 677] | < 20000 | < 100 | –
CNC(=O)c1nn(CC2(n3cc(C)c4cccnc43)CCCC2)cc(OC(=O)C(C)C)c1=O [Compound 678] | < 20000 | < 100 | –
CNC(=O)c1nn(CC2(n3cc(C)c4cccnc43)CCCC2)cc(OC(=O)C(C)(C)C)c1=O [Compound 679] | < 20000 | < 100 | –
CNC(=O)c1nn(CC2(n3cc(Br)c4cccnc43)CCCC2)cc(O)c1=O [Compound 680] | < 20000 | < 100 | –
CNC(=O)c1nn(CC2(n3cc(C(F)(F)F)c4cccnc43)CCCC2)cc(O)c1=O [Compound 681] | < 20000 | < 100 | –
O=C(NC1CC1)c1nn(CC2(n3cc(C(F)(F)F)c4cccnc43)CCCC2)cc(O)c1=O [Compound 682] | < 20000 | < 100 | –
O=C(O)c1nn(CC2(c3cccc(Br)c3)CCCC2)cc(O)c1=O [Compound 683] | > 100000 | < 100 | –
CNC(=O)c1nn(CC2(c3ccc(C(F)(F)F)cc3)CCCC2)cc(O)c1=O [Compound 685] | < 20000 | < 100 | –
CNC(=O)c1nn(CC2(c3ccc(-c4ccccc4)cc3)CCCC2)cc(O)c1=O [Compound 686] | < 20000 | 100 to 1000 | –
CNC(=O)c1nn(CC2(c3ccc(C(C)C)cc3)CCCC2)cc(O)c1=O [Compound 687] | < 20000 | < 100 | –

Compound | EC50 ([1]; Influenza A virus, A549, 20 h) [nM] | IC50 (EN PA) [nM] | EC50 [1] [nM]
O=C(NCc1ccncc1)c1nn(CC2(c3ccccc3)CCCC2)cc(O)c1=O [Compound 692] | < 20000 | < 100 | –
O=C(NCc1cncnc1)c1nn(CC2(c3ccccc3)CCCC2)cc(O)c1=O [Compound 693] | < 20000 | < 100 | –
CNC(=O)c1nn(CC2(n3cc(C(C)C)c4cccnc43)CCCC2)cc(O)c1=O [Compound 694] | < 20000 | 100 to 1000 | –
CNC(=O)c1nn(CC2(n3cc(C(F)(F)F)c4cccnc43)CCCC2)cc(OC(=O)C(C)(C)C)c1=O [Compound 695] | < 20000 | < 100 | –
CNC(=O)c1nn(CC2(c3cccc(Cl)c3)CCCC2)cc(O)c1=O [Compound 700] | < 20000 | < 100 | –
CNC(=O)c1nn(CC2(c3cccc(OC)c3)CCCC2)cc(O)c1=O [Compound 703] | < 20000 | < 100 | –
CNC(=O)c1nn(CC(C)(C)n2cc(C(F)(F)F)c3cccnc32)cc(O)c1=O [Compound 704] | < 20000 | < 100 | –
NC(=O)c1nn(CC2(c3ccccc3)CCCC2)cc(O)c1=O [Compound 708] | < 20000 | < 100 | –
O=C(NCc1ccc(F)c(Cl)c1)c1nn(CC2(c3ccccc3)CCCC2)cc(O)c1=O [Compound 709] | < 20000 | < 100 | –
CNC(=O)c1nn(CC2(n3cc(C4CC4)c4cccnc43)CCCC2)cc(O)c1=O [Compound 718] | < 20000 | < 100 | –
O=C(Nc1ccc(Cl)cc1)c1nn(CC2(c3ccccc3)CCCC2)cc(O)c1=O [Compound 720] | > 100000 | < 100 | –
NC(=O)c1nn(CC2(c3cccc(-c4ccccc4)c3)CCCC2)cc(O)c1=O [Compound 722] | > 100000 | < 100 | –
CC(C)c1cccc(C2(Cn3cc(O)c(=O)c(C(=O)O)n3)CCCC2)c1 [Compound 723] | 20000 to 100000 | < 100 | –
CC(C)c1cccc(C2(Cn3cc(O)c(=O)c(C(N)=O)n3)CCCC2)c1 [Compound 730] | < 20000 | < 100 | –
CCc1cccc(C2(Cn3cc(O)c(=O)c(C(=O)NC)n3)CCCC2)c1 [Compound 733] | < 20000 | < 100 | –
C=Cc1cccc(C2(Cn3cc(O)c(=O)c(C(=O)NC)n3)CCCC2)c1 [Compound 738] | < 20000 | < 100 | –
CNC(=O)c1nn(CC2(n3cc(C)c4ccccc43)CCCC2)cc(O)c1=O [Compound 740] | < 20000 | < 100 | –
CCNC(=O)c1nn(CC2(n3cc(C)c4cccnc43)CCCC2)cc(O)c1=O [Compound 741] | < 20000 | < 100 | –
CNC(=O)c1nn(CC2(n3cc(-c4ccccc4)c4cccnc43)CCCC2)cc(O)c1=O [Compound 742] | – | < 100 | < 20000
CNC(=O)c1nn(CC2(n3cc(Cl)c4cccnc43)CCCC2)cc(O)c1=O [Compound 743] | < 20000 | < 100 | –
CCc1ccc(C2(Cn3cc(O)c(=O)c(C(=O)NC)n3)CCCC2)cc1 [Compound 747] | < 20000 | < 100 | –
CNC(=O)c1nn(CC2(c3cccc4ccccc34)CCCC2)cc(O)c1=O [Compound 749] | < 20000 | < 100 | –
O=C(NCc1ccc(F)c(Cl)c1)c1nn(CC2(c3cccc(Cl)c3)CCCC2)cc(O)c1=O [Compound 750] | < 20000 | < 100 | –
CNC(=O)c1nn(CC2(c3ccc(Cl)c(Cl)c3)CCCC2)cc(O)c1=O [Compound 752] | < 20000 | < 100 | –
CCNC(=O)c1nn(CC2(n3cc(Cl)c4cccnc43)CCCC2)cc(O)c1=O [Compound 753] | < 20000 | < 100 | –
